Source: patent US20100298299A1, “NON-PEPTIDE DERIVATIVES AS BRADYKININ B1 ANTAGONISTS” (priority 2007, published 2010)

Key:
[1] = target: T1, recombinant human B1 receptors (Homo sapiens, UniProt P46663); assay: Functional assay: antagonist potency by cytosolic calcium measurement in CHO-B1 cells; format: cell-based; conditions: CHO-B1 cells, inhibition of LysDABK (EC80)-evoked [Ca2+]i elevation; read-out: B1 func.
T1 construct: host or cells: CHO (CHO-B1)
T1 sequence (P46663 1-353): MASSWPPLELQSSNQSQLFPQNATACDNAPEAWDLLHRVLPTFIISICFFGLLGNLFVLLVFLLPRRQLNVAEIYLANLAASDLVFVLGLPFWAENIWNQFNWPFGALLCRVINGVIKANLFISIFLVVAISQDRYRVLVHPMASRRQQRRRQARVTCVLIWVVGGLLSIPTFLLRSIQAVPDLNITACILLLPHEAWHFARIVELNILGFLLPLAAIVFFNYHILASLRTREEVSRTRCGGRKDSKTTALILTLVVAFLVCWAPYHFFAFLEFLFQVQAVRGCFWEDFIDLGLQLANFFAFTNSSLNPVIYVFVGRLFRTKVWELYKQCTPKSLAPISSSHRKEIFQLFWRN
Procedure: Assessment of Antagonist Potency at B1 and B2 Receptors In Vitro by Measurement of Cytosolic Calcium Ion Concentration with a Plate Reader Fluorimeter in Cells Expressing Recombinant Human B1 or B2 Receptors
Chinese hamster ovary (CHO) cells stably expressing recombinant human B1 (CHO-B1, Euroscreen) or B2 (CHO-B2, Perkin-Elmer) receptors were cultured in Dulbecco's Modified Eagle's Medium (DMEM) containing 10% Fetal Calf Serum (FCS), 100 U/ml penicillin, 0.1 mg/ml streptomycin, 0.25 μg/ml amphotericin B, 1% Minimum Essential Medium Eagle (MEM), non essential amino acid solution, 600 μg/ml G418, 1% pyruvate (for the B2 cell line). Cells were kept at 37° C. in a humidified incubator in an atmosphere of 5% CO2/95% air and were passaged 1:4 three times a week. Cells were plated at 1.5−2.5×10^4 cell/well on standard 96-well microplates, measurements of cytosolic calcium ion concentration ([Ca^2+]i) were carried out 1-2 days after cell plating.
Measurements of [Ca^2+]i were carried out on CHO-B1 and CHO-B2 cells stably expressing human B1 and B2 receptors, respectively. Cells were grown in standard 96-well microplates and before the measurement were loaded with a fluorescent Ca^2+-sensitive dye, fluo-4/AM (2 μM): after removing the culture medium the dye was added to the cells (dissolved in assay buffer: 145 mM NaCl, 5 mM KCl, 2 mM MgCl2, 2 mM CaCl2, 10 mM HEPES, 20 mM D-glucose, 2 mM probenecid, 100 μl/well) and cells were incubated at 37° C. in a humidified incubator in an atmosphere of 5% CO2/95% air for 40-120 min. To stop dye loading cells were washed twice with assay buffer. After washing, various concentrations of the test compounds (diluted in extracellular medium from a DMSO stock solution, final DMSO concentration was <0.1%) or buffer were added to each well depending on the experimental setup. After incubation at 37° C. for 20-25 min. baseline and agonist-evoked changes of [Ca^2+]i were measured column by column with a plate reader fluorimeter (Fluoroskan Ascent, Labsystems). Excitation and detection of emission was carried out from the bottom of the plate. Filters used for Fluo-4: excitation filter—485 nm, emission filter—538 nm. The whole measurement process was performed at 37° C. and was controlled by custom software. Inhibitory potency of the test compounds was assessed by measuring the reduction in the agonist-evoked [Ca^2+]i-elevation in the presence of different concentrations of the compounds. The agonists were LysDABK for CHO-B1, and bradykinin for CHO-B2 cells. Agonists were applied at an EC80 concentration, the EC80-values were derived from daily determined dose-response curves. Fluorescence data were expressed as ΔF/F (fluorescence change normalized to baseline). All treatments on a single plate were measured in multiple wells. Data from all wells with the same treatment were averaged and the average values were used for analysis. Inhibitory potency of a compound at a single concentration point was expressed as percent inhibition of the control agonist response. Sigmoidal concentration-inhibition curves were fitted to the data (derived from at least three independent experiments) and IC50-values were determined as the concentration that produces half of the maximal inhibition caused by the compound.

[2] = target: T2, human recombinant bradykinin B1 receptor (Homo sapiens, UniProt P46663); assay: Human recombinant bradykinin B1 receptor binding; conditions: CHO cell membranes, [3H]-[Des-Arg10] Kallidin radioligand; read-out: B1 binding
T2 construct: purchased Euroscreen ES-091; host or cells: CHO cells
T2 sequence (P46663 1-353): T1 sequence (P46663 1-353)
Procedure: 1. Human Recombinant Bradykinin B1 Receptor Binding
Binding assays were carried out on human recombinant bradykinin) receptors (expressed in CHO cells) according to the Euroscreen Technical Data Sheet (Cat. No.: ES-091). 20 μg protein/tube was incubated with [3,4-prolyl-3,4-^3H(N)]-[Des-Arg^10] Kallidin as radioligand. Non specific binding was determined in the presence of 10 μM Lys-des-Arg^9-Bradykinin. The final incubation volume was 250 μl. Samples were incubated for 15 min. at 25° C. then were rapidly vacuum filtered through GF/B filters presoaked for at least 1 h in 0.5% PEI. Radioactivity was determined by liquid scintillation spectroscopy.

IC50 [1] | Ki [2] | Structure (SMILES)
< 20 nM | < 20 nM | O=C(N[C@H](CO)C(=O)N1CCC(CCN2CCCC2)CC1)c1ccc(S(=O)(=O)Nc2ccccc2Oc2ccccc2)cc1 [Example 27, (R)—N-{1-Hydroxymethyl-2-oxo-2-[4-(2-pyrrolidin-1-yl-ethyl)-piperidin-1-yl]-ethyl}-4-(2-phenoxy-phenylsulfamoyl)-benzamide]
< 20 nM | < 20 nM | O=C(N[C@@H](Cc1ccc(O)cc1)C(=O)N1CCC(O)CC1)c1ccc(S(=O)(=O)Nc2ccccc2Oc2ccccc2)cc1 [Example 34, (S)—N-[1-(4-Hydroxy-benzyl)-2-(4-hydroxy-piperidin-1-yl)-2-oxo-ethyl]-4-(2-phenoxy-phenylsulfamoyl)-benzamide]
< 20 nM | < 20 nM | C[C@@H](NC(=O)c1ccc(S(=O)(=O)Nc2ccccc2Oc2ccccc2)cc1)C(=O)N1CCC(CCN2CCCC2)CC1 [Example 1, (R)—N-{1-Methyl-2-oxo-2-[4-(2-pyrrolidin-1-yl-ethyl)-piperidin-1-yl]-ethyl}-4-(2-phenoxy-phenylsulfamoyl)-benzamide]
